According to patent publication US20180299431A1, “Explant Assay to Determine the Potential for Compositions to Promote or to Inhibit Neural Tube Defects” (Board of Supervisors of Louisiana State University and …, priority 2015, published 2018):

How the values were obtained:
[1] = tested on: STZ-induced diabetic mouse pregnancies; conditions: cited from earlier work
[2] = tested on: diabetic NOD pregnancies; test: NOD diabetic pregnancies and folinic acid supplementation; type: in vivo, mouse
Method: All animal experiments were performed with prior approval from the Pennington Biomedical Research Center IACUC, and were conducted in accordance with the “Guide for the care and use of laboratory animals” of the United States National Institutes of Health. Animals were housed with a 12-hour light/dark cycle, with access to food and water ad libitum. Mice of the Non-Obese Diabetic strain (NOD/ShiLtJ, The Jackson Laboratory, Bar Harbor, Me.; sometimes referred to as “NOD” mice), as well as male mice of strain FVB were kept on Purina™ 5001 diet (calories provided by: Protein, 28.5%; Fat, 13.5%; Carbohydrate, 58%. LabDiet, Purina Mills Inc., Gray Summit, Mo.). Females of strain FVB were kept on Purina 5015 diet (calories provided by: Protein, 19.8%; Fat, 25.3%; Carbohydrate, 54.8%). Blood glucose levels were monitored weekly in NOD mice. Once blood glucose exceeded 250 mg/dl, females were considered diabetic, and were then used for mating and production of embryos. Diabetic as well as normoglycemic NOD female mice were mated to normoglycemic NOD male mice; once NOD males became hyperglycemic, they were retired from the experiment and were no longer used. Supplementation with folinic acid (12.5 mg/kg body weight, once per week by intraperitoneal injection) was initiated at the age of 10 weeks in 56 NOD females. […]

| Structure (SMILES) | effect on NTDs (in words) [1] | NTD incidence (in words) ([2]; NOD strain, folinic acid supplementation) | incidence of neural tube defects in embryos ([2]; diabetic NOD pregnancies, gestation day 10.5, 12.5 mg/kg once per week i.p., 17 NTDs in 81 embryos, unsupplemented 40.2%, Fisher's Exact Test p=0.006) |
| --- | --- | --- | --- |
| Nc1nc2ncc(CNc3ccc(C(=O)N[C@@H](CCC(=O)O)C(=O)O)cc3)nc2c(=O)[nH]1 [folic acid] | beneficial effects |  |  |
| Nc1nc(=O)c2c([nH]1)NCC(CNc1ccc(C(=O)N[C@@H](CCC(=O)O)C(=O)O)cc1)N2C=O (mixture of isomers) [folinic acid] |  | reduced | 21% |
